Measurements reported in patent US11306095B2 (EAST CHINA UNIVERSITY OF SCIENCE AND TECHNOLOGY, priority 2015, dated 2022).
≈ marks a conversion by molar mass, not a printed value.

What was measured:
[1] = tested on: A431 cell xenograft (EGFR wild-type); experiment: A431 cell xenograft tumor assay; format: in vivo, BALB/c nude mice; settings: 25 mg/kg, oral, 14 days
Procedure: Purpose of experiment: A431 xenograft tumor BALB/c nude mice were orally administered (PO) with a substance to be tested for 14 consecutive days. The body weight and tumor size of nude mice were observed and recorded.
Cells were fluid-changed and passaged for one time every 2-3 days and expanded. When the desired amount of cells was achieved, transplantation of cells was performed.
(§1) 40 male BALB/c nude mice, aged 4-5 weeks and weighing 17-23 g, were purchased from Shanghai Bikai, placed in an animal room environment for 2-3 days, and then seeded with cells. Cell suspension was subcutaneously injected at forelimb of the nude mouse rich in capillaries, and each mouse was injected with 0.1 mL of cell suspension.
(§2) Appropriate amount of a substance to be tested was weighed, suspended in 14 mL of DMSO-PEG400 saline solution (DMSO:PEG400:saline=1:30:69) respectively, formulated according to the following table, suspended or dissolved by ultrasonic wave, filled into vials and sealed and reserved in a 4° C. refrigerator for further use.
(§3) The length and width of a tumor and body weight of a mouse were recorded at least twice a week. The tumor size is calculated as V=0.5*length*width*width.

[2] = Pathological analysis of tumor-bearing mice after 14 consecutive days of administration; format: in vivo
[3] = tested on: H1975 cells (EGFR L858R/T790M); experiment: Inhibitory activity on cell proliferation, H1975; format: cell-based; settings: Homo sapiens, NCI-H1975; H1975, 72 hours; read-out: Inhibitory activity on proliferation of cells (IC50, μM) H1975
H1975 cell xenograft = H1975 cell xenograft tumor assay; format: in vivo, BALB/c nude mice; settings: 25 mg/kg
Procedure: Purpose of experiment: H1975 transplanted BALB/c nude mice were orally administered (PO) with a substance to be tested for 14 consecutive days. The body weight and tumor size of nude mice were observed and recorded.
H1975 cells were obtained from Shanghai Institute of Materia Medica. […] Cells were fluid-changed and passaged for one time every 2-3 days and expanded. When the desired amount of cells was achieved, transplantation of cells was performed.
as §1
as §2, with “sealed,” for “sealed”
as §3

[4] = tested on: A431 cells (EGFR wild type); experiment: Inhibitory activity on cell proliferation, A431; format: cell-based; settings: Homo sapiens, A-431; A431, 72 hours; read-out: Inhibitory activity on proliferation of cells (IC50, μM) A431
[5] = Determination of solubility in water (PBS 20 mM, pH 6.8); format: physicochemical; settings: PBS buffer, aqueous buffer, thermodynamic from solid; pH 6.8, 20 mM PBS; read-out: Solubility (pH 6.8, g/mL)
Procedure, shortened: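 Compound suspension filtered (0.22 μm PVDF), diluted in 50% methanol/50% PBS, absorbance read by UV spectrophotometry. Solubility calculated from a standard curve of 0.01–0.05 mg/mL methanol-derived solutions (r > 0.998).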

Wild type EGFR = target: T1, Wild type EGFR (Homo sapiens, UniProt P00533); experiment: Kinase activity test (FRET), wild type EGFR; format: biochemical; settings: wild type EGFR; read-out: Inhibitory activity of EGFR on kinase (IC50, nM) WT
T1 construct: purchased Invitrogen PV3872
Procedure, shortened: (§4)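 FRET assay with coumarin/fluorescein-labelled poly(Glu, Tyr)4:1 peptide and ATP, compounds at 5.1×10^−11 to 1.0×10^−6 mol/L final. Kinase reaction 1.5 h at room temperature, then 1 h development cleaving unphosphorylated peptide.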

EGFR-L858R/T790M = target: T2, EGFR-L858R/T790M (Homo sapiens, UniProt P00533, L858R/T790M); experiment: Kinase activity test (FRET), EGFR T790M/L858R; format: biochemical; settings: EGFR T790M/L858R; read-out: Inhibitory activity of EGFR on kinase (IC50, nM) T790M/L858R
T2 construct: purchased Invitrogen PV4879
Procedure, shortened: as §4

T1 sequence (P00533 25-1210): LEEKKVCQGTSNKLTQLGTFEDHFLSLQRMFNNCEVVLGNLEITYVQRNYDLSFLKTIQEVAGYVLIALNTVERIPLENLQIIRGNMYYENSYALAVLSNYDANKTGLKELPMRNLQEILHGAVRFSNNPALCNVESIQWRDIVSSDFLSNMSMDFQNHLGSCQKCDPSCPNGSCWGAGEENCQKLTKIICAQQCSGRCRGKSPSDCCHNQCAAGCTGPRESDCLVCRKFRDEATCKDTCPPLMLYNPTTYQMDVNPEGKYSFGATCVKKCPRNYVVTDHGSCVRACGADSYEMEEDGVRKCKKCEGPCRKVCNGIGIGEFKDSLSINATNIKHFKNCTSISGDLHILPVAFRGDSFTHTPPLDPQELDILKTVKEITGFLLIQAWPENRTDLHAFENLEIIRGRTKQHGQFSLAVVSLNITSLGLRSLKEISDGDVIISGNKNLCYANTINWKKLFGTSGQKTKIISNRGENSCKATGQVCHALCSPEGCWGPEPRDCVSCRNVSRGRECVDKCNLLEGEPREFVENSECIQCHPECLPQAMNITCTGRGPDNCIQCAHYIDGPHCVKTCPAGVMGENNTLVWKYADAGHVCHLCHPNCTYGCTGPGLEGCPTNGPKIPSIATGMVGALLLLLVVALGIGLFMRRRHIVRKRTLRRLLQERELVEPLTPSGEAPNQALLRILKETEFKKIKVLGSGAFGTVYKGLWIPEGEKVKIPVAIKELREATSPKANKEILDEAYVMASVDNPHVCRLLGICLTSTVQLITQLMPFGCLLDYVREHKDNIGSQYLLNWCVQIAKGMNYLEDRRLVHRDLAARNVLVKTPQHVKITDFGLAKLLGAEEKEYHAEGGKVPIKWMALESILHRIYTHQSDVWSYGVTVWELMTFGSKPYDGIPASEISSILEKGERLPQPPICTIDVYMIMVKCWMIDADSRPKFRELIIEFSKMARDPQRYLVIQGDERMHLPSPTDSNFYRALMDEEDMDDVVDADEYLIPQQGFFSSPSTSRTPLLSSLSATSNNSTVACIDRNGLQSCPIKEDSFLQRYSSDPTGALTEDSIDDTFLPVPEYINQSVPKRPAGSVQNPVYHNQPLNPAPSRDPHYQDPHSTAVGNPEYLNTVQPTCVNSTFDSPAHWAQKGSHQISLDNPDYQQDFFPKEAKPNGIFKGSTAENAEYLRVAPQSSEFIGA
T2 sequence (P00533 25-1210 T790M/L858R): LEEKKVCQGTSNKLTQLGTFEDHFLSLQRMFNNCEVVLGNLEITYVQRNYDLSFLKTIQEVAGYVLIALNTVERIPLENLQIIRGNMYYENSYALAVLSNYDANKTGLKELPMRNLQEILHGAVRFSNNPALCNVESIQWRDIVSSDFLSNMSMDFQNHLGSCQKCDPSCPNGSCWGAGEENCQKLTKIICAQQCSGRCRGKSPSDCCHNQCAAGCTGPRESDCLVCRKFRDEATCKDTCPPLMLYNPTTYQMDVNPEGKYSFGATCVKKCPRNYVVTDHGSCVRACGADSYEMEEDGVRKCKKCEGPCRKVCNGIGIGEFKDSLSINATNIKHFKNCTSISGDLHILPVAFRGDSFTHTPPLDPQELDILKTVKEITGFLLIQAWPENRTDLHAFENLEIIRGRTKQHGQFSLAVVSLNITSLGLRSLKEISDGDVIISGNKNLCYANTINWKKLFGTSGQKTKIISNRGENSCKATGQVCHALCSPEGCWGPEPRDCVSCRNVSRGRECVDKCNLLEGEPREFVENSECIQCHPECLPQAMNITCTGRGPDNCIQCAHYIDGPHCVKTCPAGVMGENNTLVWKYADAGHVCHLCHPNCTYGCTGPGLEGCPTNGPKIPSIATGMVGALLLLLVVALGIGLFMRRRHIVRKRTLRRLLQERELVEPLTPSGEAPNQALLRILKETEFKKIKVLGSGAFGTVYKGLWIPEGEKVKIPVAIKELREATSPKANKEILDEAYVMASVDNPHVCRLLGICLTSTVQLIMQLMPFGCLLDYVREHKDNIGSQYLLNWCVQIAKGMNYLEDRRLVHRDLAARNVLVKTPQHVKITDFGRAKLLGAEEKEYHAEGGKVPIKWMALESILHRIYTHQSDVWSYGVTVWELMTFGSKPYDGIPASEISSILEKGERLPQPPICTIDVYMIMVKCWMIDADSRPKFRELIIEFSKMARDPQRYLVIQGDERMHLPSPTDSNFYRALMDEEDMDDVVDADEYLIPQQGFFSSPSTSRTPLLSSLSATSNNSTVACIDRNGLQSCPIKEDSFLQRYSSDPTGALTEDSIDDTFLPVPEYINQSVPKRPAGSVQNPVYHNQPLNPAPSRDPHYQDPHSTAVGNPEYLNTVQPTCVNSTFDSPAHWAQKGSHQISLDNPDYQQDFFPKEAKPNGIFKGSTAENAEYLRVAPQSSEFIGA

C=CC(=O)Nc1cc(Nc2nccc(-c3cn(C)c4ccccc34)n2)c(OC)cc1N(C)CCN(C)C [AZD9291, reference compound]
tumor size in EGFR wild-type A431 cell xenograft model (FIG. 3) [1]: the size of the tumor did not substantially change
pathology, brain tissue (FIG. 5E) [2]: normal tissue structure, no pathological change
pathology, heart tissue (FIG. 5G) [2]: 1) moderate expansion of myocardial fiber gap in the tissue, as indicated by the black arrow, 2) vacuoles formed in the cytoplasm of the myocardial fibers
pathology, intestine tissue (FIG. 5A) [2]: inflammatory cell focal infiltration seen in tissue
pathology, kidney tissue (FIG. 5F) [2]: 1) extensive kidney tubular lumen expansion in tissue, as shown by the black arrow, 2) part of glomerular wall thickening, as shown by the yellow arrow, and 3) visible transparent tube
pathology, liver tissue (FIG. 5C) [2]: 1) more severe liver injury, extensive hepatic sinusoids dilatation, as indicated by the black arrow, and 2) visible necrosis in liver tissue
pathology, lung tissue (FIG. 5B) [2]: pulmonary congestion, interstitial edema
pathology, tumor tissue (FIG. 5D) [2]: moderate necrosis of cells in the entire tissues
effect on tumor size in H1975 xenograft (FIG. 2) (H1975 cell xenograft): effectively reduce the size of a tumor

C=CC(=O)Nc1cccc(-n2c(=O)cnc3cnc(Nc4ccc(N5CCN(C)CC5)cc4OCOC)nc32)c1 [Compound 9, N-(3-(2-((2-(methoxymethoxy)-4-(4-methyl-1-piperazinyl)phenyl)amino)-7-oxo-8(7H)-pteridinyl)phenyl)acrylamide]
solubility [5]: 163 µg/mL (≈ 300 µM)
IC50 (Wild type EGFR): 23.4 nM
IC50 [3]: 1.04 µM
IC50 (EGFR-L858R/T790M): 20.8 nM
melting point: 187.3 to 188.1 °C
IC50 [4]: 2.81 µM

C=CC(=O)Nc1cccc(-n2c(=O)c(-c3ccccc3)nc3cnc(Nc4ccc(N5CCN(C)CC5)c(C)c4)nc32)c1 [Compound 47, N-(3-(2-((3-methyl-4-(4-methyl-1-piperazinyl)phenyl)amino)-7-oxy-6-phenyl-8(7H)pteridinyl)phenyl)acrylamide]
solubility [5]: < 10 µg/mL
IC50 (Wild type EGFR): 0.5 nM
IC50 [3]: 0.018 µM
IC50 (EGFR-L858R/T790M): 0.2 nM
melting point: 265 to 265.2 °C
IC50 [4]: 1.73 µM

C=CC(=O)N1CCC[C@@H](n2c(=O)c(-c3ccccc3)nc3cnc(Nc4ccc(N5CCN(C)CC5)cc4OC)nc32)C1 [Compound 45, (R)-8-(1-acryloyl-3-piperidinyl)-2-((2-methoxy-4-(4-methyl-1-piperazinyl)phenyl)amino)-6-phenyl-7(8H)pteridinone]
solubility [5]: < 10 µg/mL
IC50 (Wild type EGFR): > 1000 nM
IC50 [3]: 1.78 µM
IC50 (EGFR-L858R/T790M): > 1000 nM
melting point: 134.9 to 135.1 °C
IC50 [4]: 4.28 µM

C=CC(=O)Nc1cccc(-n2c(=O)c(-c3cc(F)cc(F)c3)nc3cnc(Nc4ccc(N5CCN(C)CC5)cc4OC)nc32)c1 [Compound 55, N-(3-(6-(3,5-difluorophenyl)-2-((2-methoxy-4-(4-methyl-1-piperazinyl)phenyl)amino)-7-oxo-8(7H)pteridinyl)phenyl)acrylamide]
solubility [5]: < 10 µg/mL
IC50 (Wild type EGFR): 6.6 nM
IC50 [3]: 0.262 µM
IC50 (EGFR-L858R/T790M): 6.1 nM
melting point: 291.2 to 291.4 °C
IC50 [4]: 1.3 µM

C=CC(=O)Nc1cccc(-n2c(=O)c(-c3ccc(F)cc3)nc3cnc(Nc4ccc(N5CCN(C)CC5)cc4OC)nc32)c1 [Compound 52, N-(3-(6-(4-fluorophenyl)-2-((2-methoxy-4-(4-methyl-1-piperazinyl)phenyl)amino)-7-oxo-8(7H)pteridinyl)phenyl)acrylamide]
solubility [5]: < 10 µg/mL
IC50 (Wild type EGFR): 1.3 nM
IC50 [3]: 0.044 µM
IC50 (EGFR-L858R/T790M): 0.6 nM
melting point: 262.3 to 262.7 °C
IC50 [4]: 1.46 µM

C=CC(=O)Nc1cccc(-n2c(=O)c(-c3ccc(F)c(F)c3)nc3cnc(Nc4ccc(N5CCN(C)CC5)cc4OC)nc32)c1 [Compound 56, N-(3-(6-(3,4-difluorophenyl)-2-((2-methoxy-4-(4-methyl-1-piperazinyl)phenyl)amino)-7-oxo-8(7H)pteridinyl)phenyl)acrylamide]
solubility [5]: < 10 µg/mL
IC50 (Wild type EGFR): 1.6 nM
IC50 [3]: 0.228 µM
IC50 (EGFR-L858R/T790M): 1.7 nM
melting point: > 300 °C
IC50 [4]: 1.2 µM

C=CC(=O)N1CC[C@H](n2c(=O)c(-c3ccccc3)nc3cnc(Nc4ccc(N5CCN(C)CC5)c(OC)c4)nc32)C1 [Compound 35, (S)-8-(1-acryloyl-30pyrrolidinyl)-2-((3-methoxy-4(4-methyl-1-piperazinyl)phenyl)amino)-6-phenyl-7(8H)pteridinone]
solubility [5]: 63.3 µg/mL (≈ 112 µM)
IC50 (Wild type EGFR): 20.1 nM
IC50 [3]: 0.378 µM
IC50 (EGFR-L858R/T790M): 17.5 nM
melting point: 208.3 to 208.8 °C
IC50 [4]: 0.225 µM

C=CC(=O)Nc1cccc(-n2c(=O)c(C(C)C)nc3cnc(Nc4cc(C)c(N5CCN(C)CC5)cc4OC)nc32)c1 [Compound 39, N-(3-(6-isopropyl-2-((2-methoxy-5-methyl-4-(4-methyl-1-piperazinyl)phenyl)amino)-7-oxo-8(7H)pteridinyl)phenyl)acrylamide]
solubility [5]: < 10 µg/mL
IC50 (Wild type EGFR): 130 nM
IC50 [3]: 0.572 µM
IC50 (EGFR-L858R/T790M): 82.2 nM
melting point: 227.5 to 228.5 °C
IC50 [4]: 3.84 µM

C=CC(=O)Nc1cccc(-n2c(=O)c(-c3ccccc3)nc3cnc(Nc4ccc(N5CCC(N6CCN(C)CC6)CC5)cc4OC)nc32)c1 [Compound 48, N-(3-(2-((2-methoxy-4-(4-(4-methyl-1-piperazinyl)piperidinyl)phenyl)amino)-7-oxo-6-phenyl-8(7H)pteridinyl)phenyl)acrylamide]
solubility [5]: < 10 µg/mL
IC50 (Wild type EGFR): 362 nM
IC50 [3]: 0.031 µM
IC50 (EGFR-L858R/T790M): 20.8 nM
melting point: > 300 °C
IC50 [4]: 0.64 µM

COc1cc(N2CCN(C)CC2)ccc1Nc1ncc2ncc(=O)n(C3CCN(C(=O)/C=C/CN(C)C)CC3)c2n1 [Compound 30, (E)-8-(1-(4-(dimethylamino)-2-butenoyl)-4-piperidinyl)-2-((2-methoxy-4-(4-methyl-1-piperazinyl)phenyl)amino)-7(8H)pteridinone]
solubility [5]: > 10 µg/mL
IC50 (Wild type EGFR): > 1000 nM
IC50 [3]: 8.69 µM
IC50 (EGFR-L858R/T790M): > 1000 nM
melting point: 157.3 to 157.6 °C
IC50 [4]: > 10 µM
